From US20110152246A1, “NOVEL INHIBITORS OF HEPATITIS C VIRUS REPLICATION” (InterMune, Inc., priority 2009, published 2011)

Each compound was assayed on Huh7 cells containing HCV replicons with an integrated luciferase reporter gene (assay: HCV Replicon Assay (luciferase reporter)). Settings: Hepatitis C virus, Huh-7, 48 h, read-out: EC50 nM.
Assay type: cell-based
Protocol: Huh7 cells containing HCV replicons with an integrated luciferase reporter gene are maintained at 37° C. in 5% CO2 in Dulbecco's modified Eagle's medium (DMEM; Mediatech, Herndon, Va.) containing 10% heat-inactivated fetal bovine serum (FBS; Mediatech, Herndon, Va.), 2 mM L-glutamine (Cambrex Bioscience, Walkersville, Md.), 1% non essential amino acids (Lonza, Walkersville, Md.), 50 IU/mL penicillin (Mediatech, Herndon, Va.), […] streptomycin (Mediatech, Herndon, Va.) and 0.5 mg/mL G418 (Promega, Madison, Wis.). Cells are sub-divided 1:3 or 4 every 2-3 days.
24 h prior to the assay, Huh7 cells containing sub-genomic HCV replicons are collected, counted, and plated in Nunclon 96-well tissue culture plates (ThermoFisher, Rochester, N.Y.) at 5000 cells/well in […] standard maintenance medium (above) and incubated in the conditions above. To initiate the assay, culture medium is removed, and replaced with […] maintenance media lacking G418. Test compounds are serially diluted three-fold in dimethyl sulfoxide (DMSO) in two duplicate rows for each EC50 determination. These compound solutions are diluted ten-fold in DMEM lacking serum and G418. […] of these compound solutions in media are added to duplicate tissue culture plates. The final volume is 100 μL with a DMSO concentration of 1%. Compound concentrations are adjusted to appropriately define a dose response curve. Typical dilution series range from […] to 1.69 nM final concentrations to 1 nM to 16.9 fM final. Plates are incubated at 37° C. for approximately 48 hr.
Following incubation, media is removed from one of the two duplicate plates and replicon-reporter luciferase activity is measured using a Bright-Glo luciferase assay kit (Promega, Madison, Wis.) according to manufacturer's instructions. Semi-log plots of luciferase activity versus the logarithm of compound concentration are fit to a 4-parameter logistic function using XLfit software (IDBS Inc., Guildford, UK) to determine EC50.

For COC(=O)N[C@H](C(=O)N1CCC[C@H]1C(=O)Nc1ccc(NC(=O)c2ccc(NC(=O)[C@@H]3CCCN3C(=O)[C@@H](NC(=O)OC)C(C)C)cc2)cc1)C(C)C [Compound 102], the EC50 was 10 to 100 nM.

Same assay, conditions: Hepatitis C virus, Huh-7; Huh7 HCV replicon cells, luciferase activity, approximately 48 hr incubation; read-out: EC50

COC(=O)N[C@H](C(=O)N1CCC[C@H]1c1nc(-c2ccc(-c3ccc(-c4c[nH]c([C@@H]5CCCN5C(=O)[C@@H](NC(=O)OC)C(C)C)n4)c4c3ccn4C)cc2)c[nH]1)C(C)C [Compound 327] and COC(=O)N[C@H](C(=O)N1CCC[C@H]1c1nc(-c2ccc(-c3ccc(-c4c[nH]c([C@@H]5CCCN5C(=O)Cc5ccccc5)n4)cc3)c3ccccc23)c[nH]1)C(C)C [Compound 308] cannot be ordered by EC50: less than 10 nM for the first, less than 10 nM for the second.

COC(=O)N[C@H](C(=O)N1CCC[C@H]1C(=O)Nc1ccc2cc(-c3cnc(NC(=O)[C@@H]4CCCN4C(=O)[C@@H](NC(=O)OC)C(C)C)nc3)ccc2c1)C(C)C [Compound 221] and COC(=O)N[C@H](C(=O)N1CCC[C@H]1C(=O)Nc1ccc2cc(-c3ccc(NC(=O)[C@@H]4CCCN4C(=O)Cc4ccccc4)nc3)ccc2c1)C(C)C [Compound 209] cannot be ordered by EC50: less than 10 nM for the first, less than 10 nM for the second.

First: COC(=O)N[C@H](C(=O)N1CCC[C@H]1C(=O)Nc1ccc(-c2ccc3cc(NC(=O)[C@@H]4CCCN4C(=O)Cc4ccccc4)ccc3c2)cn1)C(C)C [Compound 208]
Second: O=C(Nc1ccc2cc(NC(=O)[C@@H]3CCCN3C(=O)Cc3ccccc3)ccc2c1)[C@@H]1CCCN1C(=O)Cc1ccccc1 [Compound 210]
The EC50 of the first is lower: less than 10 nM for the first, greater than 100 nM for the second.
